For data set [1], the system named is A-549 (human lung carcinoma). Nature of the data set: [3H] thymidine uptake cell proliferation assay, A549. The class given is cell-based.
The target of a further data set is T1, PKB gamma (Homo sapiens, UniProt Q9Y243).
T1 construct: endogenous in cells; host or cells: U87 cells
Description: Kinase assay in U87 cells using anti PKB gamma antibody. The class given is cell-based. The note with it: U-87 MG, 1 h, after 60 min, read-out: PKB gamma isoform activity, reduction of activity to. As to the method: In preparation for this assay, each cell line was seeded at a density of 3 times 1,000,000 cells per plate onto 150 mm culture dishes and allowed to establish o/n at 37 deg C. A confluency of 50–60% was obtained to ensure maximal drug penetration into each cell. Once the cells were adherent to the culture plates, there were treated with PKB inhibitor KP-23172 for a final conc. of 5 uM. Each culture plate was lysed on ice at specific time intervals using 1% NP-40 lysis buffer containing various protease inhibitors; 10 ug/uL aprotinin, 10 ug/ul leupeptin, 1 ug/ul pepstatin, 1 M beta-glycerophosphate and 100 mM PMSF. The resulting lysates were centrifuged at 15K×g at 4 deg C. for 5 min and then assayed for its protein conc. using Bradford's Reagent and absorbance measurements at 595 nm. Equal amounts of protein were transferred to a new centrifuge tube and treated with anti-PKB-PH antibody (Kinetek #XXP-021), anti-PKBalpha antibody (Signal Transduction #67220), or anti-PKB gamma antibody (UBI 306-607) and incubated end over end at 4 deg C. […] All vials were counted for one minute in the scintillation counter.
A kinase assay in cells was also performed using anti PKB alpha and gamma antibodies in order to determine any inhibition of the isoforms by KP-23172. U87 cells were treated with 5 uM compound, lysed, and the resulting supernatant was analyzed for any changed in PKB activity. […]

Another data set can be described thus: physchem. The source says: Solubility of KP-23172 was studied in various percent solutions of hydroxypropyl-B-cyclodextrin in water.
Data set [2] relates to NIH-3T3 (murine embryonic fibroblasts). Nature of the data set: [3H] thymidine uptake cell proliferation assay, NIH3T3. The class given is cell-based. The note with it: Mus musculus; NIH3T3, non-tumorigenic cell line; read-out: Cell Proliferation Effects (IC50 (nM)).
In the next data set the test system is B16-F1 (murine melanoma). Nature of the data set: [3H] thymidine uptake cell proliferation assay, B16F1. In kind it is cell-based. The note with it: Mus musculus, read-out: Cell Proliferation Effects (IC50 (nM)).
In data set [3] the test system is PC3 (human prostate carcinoma). Nature of the data set: [3H] thymidine uptake cell proliferation assay, PC3. In kind it is cell-based. The note with it: PC-3, read-out: Cell Proliferation Effects (IC50 (nM)).
The test system of another data set is U-87 (human glioma). Nature of the data set: [3H] thymidine uptake cell proliferation assay, U87. The class given is cell-based. The procedure: Compounds were added to culture at mid-logarithmic growth and incubated for 20 hours. (N=8 for the values+standard errors). […] Cell lines A-549 (human lung carcinoma), B16-F1 (murine melanoma), B16-F10 (murine melanoma), DU-145 (human […] carcinoma), LS-180 (human colon carcinoma), PC3 (human prostate carcinoma), SKOV-3 (human ovarian carcinoma), U-87 (human glioma), and NIH-3T3 (murine embryonic fibroblasts) were all cultured in DMEM supplemented with 10% fetal bovine serum. M3 murine melanoma cells were cultured in DMEM/F12 1:1, and HT-29 human colon carcinoma and LL2 Lewis Lung […] lung carcinoma were cultured in RPMI1640. All the foregoing cell lines were obtained from ATCC. All cells were passaged regularly using 0.25% Trypsin-EDTA in order to maintain cells at exponential growth for various experiments. LS 180 cells were passaged without trypsin and were physically scraped off the culture flasks. In vitro [^3H] thymidine uptake assay. Proliferation can be measured by quantifying the amount of [^3H] thymidine uptake into cells using a β-counter, and therefore is a well-established diagnostic tool to measure DNA synthesis within the cells. […] The cells were allowed to adhere to the plates via incubation at 37° C. in 5% CO2 for 12–14 hours. […] Then, 10 μL of the compound was added to the pre-existing 90 μL per well, and incubated further at 37° C. in 5% CO2 for 20 hours. To measure thymidine incorporation, cells were fixed onto the culture wells by slowly adding ¼^th volume of cold 50% TCA into each well (25 μL to each well) and incubated for 1–2 hours at 4° C. Wells were washed 5 times with tap water to remove any free [^3H] thymidine in the media, and air-dried completely at room temperature. Then, 100 μL of scintillation fluid was added to each well and the activity counted using a Wallac Microbeta Counter.

Data set [4] relates to HT-29 human colon carcinoma. Nature of the data set: [3H] thymidine uptake cell proliferation assay, HT29. The note with it: read-out: Cell Proliferation Effects (IC50 (nM)). The class given is cell-based.
A further data set deals with M3 murine melanoma cells. Nature of the data set: [3H] thymidine uptake cell proliferation assay, M3. The class given is cell-based. The note with it: Mus musculus, read-out: Cell Proliferation Effects (IC50 (nM)).
Data set [5] relates to B16-F10 (murine melanoma). Description: [3H] thymidine uptake cell proliferation assay, B16F10. In kind it is cell-based. The note with it: Mus musculus, read-out: Cell Proliferation Effects (IC50 (nM)).
The next data set is described as follows: in vivo. To be noted: mouse, ip, 2 mg/kg. As to the method:
A pharmacokinetics (PK) study was performed on KP-23172 formulated in 20% propylene glycol and 20% hydroxypropyl-B-cyclodextrin, administered intraperitoneally (i.p.) at 2 mg/kg. Plasma samples obtained at various time points were sent to BRI Biopharmaceutical Research Inc., Burnaby, BC, Canada for analysis by Liquid Chromatography/Mass Spectroscopy (LC/MS). Electrospray LC/MS/MS data was acquired in the multiple-reaction-monitoring mode (MRM) in which m/z 225.00>114.20 was monitored for KP-23172 as its [M+H]^+ transition to an ion fragment of m/z 114.2. A mass ion transition of m/z 300.00>165.10 was being monitored for codeine as an internal standard. MRM chromatograms of mouse plasma standard curve samples spiked with 1 and 5000 ng/ml were performed as controls. Plasma calibration standard curves were established based on 1/y linear regression of plasma concentrations of KP-23172 against peak area ratio to the internal standard. The calculated KP-23172 plasma concentrations were based on the assay of 0.05 ml of plasma volume used in the assay and reported as ng/ml concentration. A summary of the KP-23172 plasma concentrations observed in 20 samples from 4 mice is presented in FIG. 2 as a semi-logarithmic plot of the plasma concentrations against blood collection times.

Converted amounts (≈) assume the structure as drawn. Read-outs that look alike come from different tables or passages of the source.

T1 sequence (Q9Y243 whole entry): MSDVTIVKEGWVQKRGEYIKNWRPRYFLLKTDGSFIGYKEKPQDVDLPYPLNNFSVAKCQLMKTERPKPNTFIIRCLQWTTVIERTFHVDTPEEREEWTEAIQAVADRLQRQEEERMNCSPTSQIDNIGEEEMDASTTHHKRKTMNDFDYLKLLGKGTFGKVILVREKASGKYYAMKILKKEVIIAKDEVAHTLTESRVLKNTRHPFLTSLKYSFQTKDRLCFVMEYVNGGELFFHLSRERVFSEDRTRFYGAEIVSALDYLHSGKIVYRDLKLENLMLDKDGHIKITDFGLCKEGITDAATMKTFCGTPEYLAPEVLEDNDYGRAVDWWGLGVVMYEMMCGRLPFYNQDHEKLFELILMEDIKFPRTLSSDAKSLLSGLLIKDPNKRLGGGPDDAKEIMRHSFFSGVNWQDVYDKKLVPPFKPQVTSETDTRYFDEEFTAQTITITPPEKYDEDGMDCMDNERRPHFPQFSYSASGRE

For orientation: solubility means the dissolved amount per volume that the medium holds. Consider `O=C1c2ccccc2-c2nc3nnnn3nc21` [KP-23172], for which the IC50 in [1] (A459 cells, read-out: Cell Proliferation in A459 IC50 in nm) came to 80 nM; in data set [1] (A549, read-out: Cell Proliferation Effects (IC50 (nM))), 80 nM; in data set [2] it was 150 nM; with B16-F1 (murine melanoma), 60 nM; in data set [3] it was 250 nM; in the data set with U-87 (human glioma) (U-87 MG, U87, read-out: Cell Proliferation Effects (IC50 (nM))), 50 nM. Also, the IC50 with U-87 (human glioma) (added at mid-logarithmic growth, incubated 20 hours, N=8, read-out: U87 proliferation (thymidine incorporation) IC50, FIG. 1) was 50 nM; in [4] it was 200 nM; in the data set on M3 murine melanoma cells, 25 nM; in [5], 400 nM. The activity at 5 µM on PKB gamma is 18.3%. The “1:1 binding constant for the cyclodextrin inclusion complex” value in “physchem” was determined as 474. In addition, the solubility was found to be 728 µg/mL (≈ 3250 µM) in the data set “physchem” (aqueous with cosolvent or surfactant or cyclodextrin) and 77 µg/mL (≈ 343 µM) in the data set “physchem” (water). The concentration at 15 min in the data set “in vivo” is roughly 500 ng/mL. In addition, the concentration at 60 min in “in vivo” was roughly 100 ng/mL. Besides, the half-life result in the data set “in vivo” is given as “about ½”.
